Measured values reported in patent US11154071B2, “Sweetener iso-mogroside V” (Glvaudan SA, priority 2007, dated 2021).

Experiments:
Format in all cases: in vivo
[1] = system: sweet sensitive panelists; experiment: Comparison of the sweetness of mogroside V and iso-mogroside V in water, blind samples, sensory panel; details: panel of 4
Procedure: The intensity of sweet taste of iso-mogroside V when compared to mogroside V was determined in water using near-sweetness detection threshold concentrations. The direct comparison was carried out by a panel of 4 sweet sensitive panelists. Blind samples (identity unidentifiable by panelists) were randomly presented to panelists in 15 ml aliquots at ambient temperature. Sensory evaluation started with the lower sample concentration (10 ppm).

[2] = system: sweet sensitive panelists; experiment: Sweetness enhancement of iso-mogroside V at near threshold concentration in 7% sucrose solution, sensory panel; details: 10 ppm iso-mogroside V in 7% sucrose solution
Procedure: The sweetness enhancement properties of iso-mogroside V was determined using a sample having a concentration of 10 ppm iso-mogroside V, which is near the sweetness detection threshold, in 7% sucrose solution.
The iso-mogroside V sample was directly compared to samples of 7%, 8% or 9% sucrose, and panelists were instructed to compare the sweetness intensity of the samples.
The comparisons were carried out by a panel of 6 sweet sensitive panelists. All samples were presented to panelists in 15 ml aliquots at ambient temperature. Panelists compared the iso-mogroside V sample to each of the sucrose samples.

[3] = system: sweet sensitive panelists; experiment: Determination of the sweetness threshold of iso-mogroside V: isointensity to sucrose solutions, paired comparison
Procedure: […] Samples were paired and tasted left to right with rinsing of the mouth (water) in-between. 20 ppm iso-mogroside V was evaluated as described but with 4 sweet sensitive panelists and 0.5, 1.0 and 1.5% sucrose.

[4] = Preliminary experiments on flavour enhancing effect on sweeteners

Compound: C[C@H](CC[C@@H](O[C@@H]1O[C@H](CO[C@@H]2O[C@H](CO)[C@@H](O)[C@H](O)[C@H]2O)[C@@H](O)[C@H](O)[C@H]1O[C@@H]1O[C@H](CO)[C@@H](O)[C@H](O)[C@H]1O)C(C)(C)O)[C@H]1CC[C@@]2(C)[C@@H]3CC=C4[C@@H](CC[C@H](O[C@@H]5O[C@H](CO)[C@@H](O[C@@H]6O[C@H](CO)[C@@H](O)[C@H](O)[C@H]6O)[C@H](O)[C@H]5O)C4(C)C)[C@]3(C)[C@H](O)C[C@]12C [iso-mogroside V, 3-[(4-O-β-D-glucopyranosyl-β-D-glucopyranosyl)oxy]-mogrol-24-O-β-D-glucopyranosyl-(1→2)-O-[β-D-glucopyranosyl-(1→6)]-β-D-glucopyranoside]
- Taste of iso-mogroside V samples compared to mogroside V ([1]; 10 ppm in water): sweeter
- panelists who indicated iso-mogroside V is sweeter than mogroside V ([1]; 10 ppm in water): two
- Taste of iso-mogroside V samples compared to mogroside V ([1]; 20 ppm in water): sweeter
- panelists who indicated iso-mogroside V is sweeter than mogroside V ([1]; 20 ppm in water): 4 panelists
- panelists who found the sample as sweet or sweeter as 8% sucrose [2]: 5 of 6
- panelists who found the sample sweeter than 7% but less sweet than 8% sucrose [2]: 1 of 6
- sweetness enhancement effect (equal to sucrose) ([2]; after subtracting own sweetness of 0.5% sucrose): ≥ 0.5 % sucrose
- sweetness of iso-mogroside V sample (equal to sucrose) ([2]; compared to 7%, 8% or 9% sucrose, panel of 6): ≥ 8 % sucrose
- Taste of iso-mogroside V samples compared to sucrose ([3]; 10 ppm in water vs 0% sucrose (water), 5 panelists): sweeter
- Taste of iso-mogroside V samples compared to sucrose ([3]; 10 ppm in water vs 0.5% sucrose, 5 panelists): isosweet
- Taste of iso-mogroside V samples compared to sucrose ([3]; 10 ppm in water vs 1.0% sucrose, 5 panelists): less sweet
- Taste of iso-mogroside V samples compared to sucrose ([3]; 20 ppm in water vs 0.5% sucrose, 4 panelists): sweeter
- Taste of iso-mogroside V samples compared to sucrose ([3]; 20 ppm in water vs 1% sucrose, 4 panelists): isosweet
- Taste of iso-mogroside V samples compared to sucrose ([3]; 20 ppm in water vs 1.5% sucrose, 4 panelists): less sweet
- equivalent sweetness intensity at the sweetness detection threshold ([3]; about 0.2 ppm in water as stated): about 0.5 % sucrose
- sweetness relative to sucrose ([3]; from 10 ppm isosweet to 0.5% sucrose): about 500 times
- flavour enhancing effect on sweeteners compared to its known isomer (mogroside V) [4]: particularly high flavour enhancing effect
